Data from ChEMBL document CHEMBL3217550, “Synthesis and synergistic antimycobacterial screening of chlorpromazine and its metabolites” (2014).
Values after ≈ are worked out from the molar mass of the structure shown.

Tests used:
Assay type in all cases: functional
[1] = system: Mycolicibacterium smegmatis; experiment: Antimycobacterial against Mycobacterium smegmatis
[2] = system: Mycolicibacterium smegmatis; experiment: Antimycobacterial against Mycobacterium smegmatis in presence of rifampicin
[3] = system: Mycolicibacterium smegmatis; experiment: Antimycobacterial against Mycobacterium smegmatis in presence of kanamycin
[4] = system: Mycolicibacterium smegmatis; experiment: Antimycobacterial against Mycobacterium smegmatis in presence of streptomycin
[5] = system: Mycolicibacterium smegmatis; experiment: Antimycobacterial against Mycobacterium smegmatis in presence of 25-desacetylrifampicin
[6] = system: Mycolicibacterium smegmatis; experiment: Antimycobacterial against Mycobacterium smegmatis in presence of spectinomycin
[7] = system: Mycolicibacterium smegmatis; experiment: Antimycobacterial against Mycobacterium smegmatis in presence of ciprofloxacin
[8] = system: Mycolicibacterium smegmatis; experiment: Antimycobacterial against Mycobacterium smegmatis in presence of TMC207
[9] = system: Mycolicibacterium smegmatis; experiment: Antimycobacterial against Mycobacterium smegmatis in presence of chlorpromazine

CO[C@H]1/C=C/O[C@@]2(C)Oc3c(C)c(O)c4c(O)c(c(/C=N/N5CCN(C)CC5)c(O)c4c3C2=O)NC(=O)/C(C)=C\C=C\[C@H](C)[C@H](O)[C@@H](C)[C@@H](O)[C@@H](C)[C@H](O)[C@@H]1C [DESACETYLRIFAMPIN]
MIC99 [1]: 1.33 µM (≈ 1.04 µg/mL) | fractional inhibitory concentration index (FICI) [2]: 0.5

C[N+](C)([O-])CCCN1c2ccccc2Sc2ccc(Cl)cc21
fractional inhibitory concentration index (FICI) [3]: 1 | fractional inhibitory concentration index (FICI) [4]: 0.74 | fractional inhibitory concentration index (FICI) [5]: 0.75 | fractional inhibitory concentration index (FICI) [6]: 0.63 | MIC99 [1]: 995 µM (≈ 333 µg/mL) | fractional inhibitory concentration index (FICI) [2]: 1

CN(C)CCCN1c2ccccc2Sc2ccc(Cl)cc21 [CHLORPROMAZINE]
fractional inhibitory concentration index (FICI) [3]: 1 | fractional inhibitory concentration index (FICI) [4]: 0.79 | fractional inhibitory concentration index (FICI) [5]: 0.5 | fractional inhibitory concentration index (FICI) [6]: 0.31 | MIC99 [1]: 58.6 µM (≈ 18.7 µg/mL) | fractional inhibitory concentration index (FICI) [7]: 0.73 | fractional inhibitory concentration index (FICI) [8]: 0.7 | fractional inhibitory concentration index (FICI) [2]: 0.63

C[C@H]1COc2c(N3CCN(C)CC3)c(F)cc3c(=O)c(C(=O)O)cn1c23 [LEVOFLOXACIN]
MIC99 [1]: 0.58 µM (≈ 0.21 µg/mL)

NC[C@H]1O[C@H](O[C@H]2[C@H](O)[C@@H](O[C@H]3O[C@H](CO)[C@@H](O)[C@H](N)[C@H]3O)[C@H](N)C[C@@H]2N)[C@H](O)[C@@H](O)[C@@H]1O [KANAMYCIN]
MIC99 [1]: 1.76 µM (≈ 0.853 µg/mL)

CN(C)CCCN1c2ccc(O)cc2Sc2ccc(Cl)cc21 [7-HYDROXYCHLORPROMAZINE]
fractional inhibitory concentration index (FICI) [3]: 0.5 | fractional inhibitory concentration index (FICI) [4]: 0.79 | fractional inhibitory concentration index (FICI) [5]: 0.75 | fractional inhibitory concentration index (FICI) [6]: 0.19 | MIC99 [1]: 62.2 µM (≈ 20.8 µg/mL) | fractional inhibitory concentration index (FICI) [2]: 0.63 | fractional inhibitory concentration index (FICI) [9]: 0.75

CN[C@@H]1[C@H](O[C@H]2[C@H](O[C@H]3[C@H](O)[C@@H](O)[C@H](N=C(N)N)[C@@H](O)[C@@H]3N=C(N)N)O[C@@H](C)[C@]2(O)C=O)O[C@@H](CO)[C@H](O)[C@H]1O [STREPTOMYCIN]
MIC99 [1]: 0.07 µM (≈ 0.0407 µg/mL)

O=C(O)c1cn(C2CC2)c2cc(N3CCNCC3)c(F)cc2c1=O [CIPROFLOXACIN]
MIC99 [1]: 0.63 µM (≈ 0.209 µg/mL)

CNCCCN1c2ccccc2[S+]([O-])c2ccc(Cl)cc21 (configuration not stated)
MIC99 [1]: > 2080 µM

CN[C@@H]1[C@H](O)[C@H](NC)[C@H]2O[C@@]3(O)C(=O)C[C@@H](C)O[C@H]3O[C@@H]2[C@H]1O [SPECTINOMYCIN]
MIC99 [1]: 84.1 µM (≈ 28 µg/mL)

CCn1cc(C(=O)O)c(=O)c2ccc(C)nc21 [NALIDIXIC ACID]
MIC99 [1]: 1440 µM (≈ 333 µg/mL)

CC[C@@H](CO)NCCN[C@@H](CC)CO [ETHAMBUTOL]
MIC99 [1]: 0.76 µM (≈ 0.155 µg/mL)

CO[C@H]1/C=C/O[C@@]2(C)Oc3c(C)c(O)c4c(O)c(c(/C=N/N5CCN(C)CC5)c(O)c4c3C2=O)NC(=O)/C(C)=C\C=C\[C@H](C)[C@H](O)[C@@H](C)[C@@H](O)[C@@H](C)[C@H](OC(C)=O)[C@@H]1C [RIFAMPIN]
MIC99 [1]: 1.26 µM (≈ 1.04 µg/mL)

COc1nc2ccc(Br)cc2cc1[C@@H](c1ccccc1)[C@@](O)(CCN(C)C)c1cccc2ccccc12 [BEDAQUILINE]
MIC99 [1]: 0.05 µM (≈ 0.0278 µg/mL)

CNCCCN1c2ccccc2Sc2ccc(Cl)cc21 [NOR1-CHLORPROMAZINE]
fractional inhibitory concentration index (FICI) [3]: 0.5 | fractional inhibitory concentration index (FICI) [4]: 0.49 | fractional inhibitory concentration index (FICI) [5]: 0.5 | fractional inhibitory concentration index (FICI) [6]: 0.31 | MIC99 [1]: 63.3 µM (≈ 19.3 µg/mL) | fractional inhibitory concentration index (FICI) [2]: 0.5 | fractional inhibitory concentration index (FICI) [9]: 0.75

CN(C)CCCN1c2ccccc2[S+]([O-])c2ccc(Cl)cc21 (configuration not stated) [CHLOROPROMAZINE SULFOXIDE]
MIC99 [1]: > 1990 µM

C[N+](C)([O-])CCCN1c2ccccc2[S+]([O-])c2ccc(Cl)cc21 (configuration not stated)
MIC99 [1]: > 1900 µM
